Experimental data published in patent US20160252532A1, “pH-Biosensors Based on Compounds Produced From Pyruvic Acid For Magnetic Resonance Imaging and Spectroscopy and Their Uses” (TECHNISCHE UNIVERSITÄT MÜNCHEN, priority 2013, published 2016).

Key:
[1] = tested on: HeLa cells; assay: MTT assay cell viability (cytotoxicity test); assay type: cell-based; details: 0.4 to 50 mM, 24 hours, up to tested concentration of 50 mM, ZA 100% pure, OMPD 80% OMPD/20% ZA
Experimental: MTT assay with HeLa cells for testing cell viability after exposure to (A) OMPD and (B) zymonic acid (ZA) (0.4 to 50 mM) for 24 hours.
(12C, ZA: 100% pure; OMPD: 80% OMPD, 20% ZA).
Purified zymonic acid and OMPD were tested in a MTT assay with HeLa cells for testing cell viability after exposure to each substance at concentrations of 0.4 to 50 mM for 24 hours. After 24 hours incubation time, both substances are not cytotoxic up to the tested concentration of 50 mM.

[2] = tested on: MCF-7 tumor cells; assay: 13C-OMPD in cell culture medium with MCF-7 tumor cells immobilized in alginate beads (extracellular pH); assay type: cell-based; details: ca. 6 mM fully-labeled 13C-OMPD, ca. 10 Mio. MCF-7 cells, 10 hours
Experimental: Ten ^13C-spectra (proton decoupled) of ca. 6 mM fully-labeled ^13C-OMPD dissolved in cell culture medium with ca. 10 Mio. MCF-7 tumor cells immobilized in alginate beads were acquired during a total time of 10 hours within every hour.
The pH sensitive OMPD-peaks 1, 5 and 6 of zymonic acid were also observed in ^13C-NMR spectra of ^13C-OMPD dissolved in cell culture medium with MCF-7 tumor cells immobilized in alginate beads.

[3] = Stability in aqueous solution; assay type: physicochemical
Experimental: An exemplary ^13C spectrum (left column) and ^1H spectrum (right column) of zymonic acid produced from [1-^13C]-pyruvic acid. The relevant peaks 1 to 5, which shift in dependency of the pH value of the sample, are marked. The proton spectra show a buffered solution of zymonic acid in water and D2O, once measured right after preparation of the solution (top right) and 24 h later (bottom right).
The assignment of the NMR-peaks of zymonic acid was done using NMR prediction software (ChemDraw®) and standard 1D- and 2D-NMR-spectroscopy (see FIG. 5). […] The relevant peaks 1 to 5, which shift in dependency of the pH value of the sample, are marked. […] The proton spectra show a buffered solution of zymonic acid in water and D2O, once measured right after preparation of the solution (top right of FIG. 5) and 24 h later (bottom right of FIG. 5).

[4] = tested on: rats; assay: Toxicity tests in rats; assay type: in vivo
Experimental: Toxicity tests with a volume of 5 mL/kg at an injection rate of 0.2 mL/s for three different concentrations (20 mM (A), 40 mM (B), 80 mM (C)). Injection solution contained 80 mM Tris buffer solution, titrated with 1M NaOH to pH 7.4.
20 mM, 40 mM, and 80 mM zymonic acid were injected into 3 rats within one week with 1 day break in between each injection (see FIG. 14).
Blood pressure, heart rate, blood oxygenation and animal temperature were monitored 10 minutes before and after the injection.

[5] = tested on: rat bladder; assay: In vivo pH determination in rat bladder with copolarized zymonic acid and urea; details: injection into rat bladder via catheter, 10 mm slice
Text: FIG. 19. Copolarization of zymonic acid and urea, injection into the rat bladder via a catheter.
A 10 mm slice covering the bladder volume was chosen.
6 injections of copolarized zymonic acid in healthy rats via a catheter directly into the bladder followed by pH-imaging and pH-control of the urine before an after injection by pH-electrode (see FIG. 19).

[6] = cited from earlier work

SMILES	cytotoxicity (cell viability, MTT) [1]	metabolism within tumor cells [2]	stability in aqueous solutions [3]	behaviour of the animals ([4]; 20, 40 and 80 mM injections)	survival after injections ([4]; 20, 40 and 80 mM, 5 mL/kg, 3 rats, injections within one week)	health problems ([4]; 20, 40 and 80 mM, even after 3 days post last injection)	agreement of NMR-measured pH with electrode pH [5]	pKa of the enolic group [6]	decomposition in buffered solution ([3]; buffered solution in water and D2O, 24 hours, also cites Montgomery et al., 1956)
C/C(=C/C(=O)C(=O)O)C(=O)O [OMPD, (Z)-4-methyl-2-oxopent-3-enedioic acid]	not cytotoxic	not metabolized within tumor cells	stable in aqueous solutions	–	–	–	–	–	–
CC1(C(=O)O)C=C(O)C(=O)O1 (stereo not shown) [zymonic acid, 4-hydroxy-2-methyl-5-oxo-2,5-dihydrofuran-2-carboxylic acid]	not cytotoxic	–	–	No unusual behaviour	survived all injections	did not show health problems	Electrode pH measurements confirm the pH values measured by NMR spectroscopy	6.95	slowly decomposed into parapyruvate within a period of 24 hours
